Key:
Type in all cases: in vivo, mouse
[1] = Plasma PUFA measurement (LC-MS/MS); conditions: for FADS1 activity 20:4n-6/20:3n-6 / FADS2 activity 18:3n-6/18:2n-6: DIO mice plasma ratio; for FADS1 activity 20:4n-6/20:3n-6 / FADS2 activity 18:3n-6/18:2n-6 / Adrenic acid 22:4 n-6 / Alpha-Linolenic acid 18:3 n-3 / Arachidonic acid 20:4 n-6 / Dihomo-gamma-Linolenic acid 20:3 n-6 / Docosahexaenoic acid 22:6 n-3 / Eicosapentaenoic acid 20:5 n-3 / Eicosatetraenoic acid 20:4 n-3 / Gamma-Linoleic acid 18:3 n-6 / Linoleic acid 18:2 n-6: mean ± SD; for Adrenic acid 22:4 n-6 / Alpha-Linolenic acid 18:3 n-3 / Arachidonic acid 20:4 n-6 / Dihomo-gamma-Linolenic acid 20:3 n-6 / Docosahexaenoic acid 22:6 n-3 / Eicosapentaenoic acid 20:5 n-3 / Eicosatetraenoic acid 20:4 n-3 / Gamma-Linoleic acid 18:3 n-6 / Linoleic acid 18:2 n-6: DIO mice plasma; for Adrenic acid AdA 22:4 n-6 / Arachidonic acid AA 20:4 n-6 / Decosahexaenoic acid DHA 22:6 n-3 / Dihomo-γ-Linolenic acid DGLA 20:3 n-6 / Eicosapentaenoic acid EPA 20:5 n-3 / Eicosatetraenoic acid ETA 20:4 n-3 / Linoleic acid LA 18:2 n-6 / α-Linolenic acid ALA 18:3 n-3 / γ-Linoleic acid GLA 18:3 n-6: plasma of Compound A-treated mice; for FADS1 activity AA/DGLA 20:4n-6/20:3n-6 / FADS2 activity GLA/LA 18:3n-6/18:2n-6: plasma ratio, Compound A-treated mice
Description: Ten microliter of plasma or PUFA standards diluted in surrogate matrix (60 g/l bovine serum albumin in Dulbecco's phosphate-buffered saline [DPBS]) were mixed with 10 μl of ALA-d14 as the internal stand in a 96-well plate. 100 μl of 2N NaOH was added to the mixture for subsequent saponification at 65° C. for 1 hour. The mixture was then acidified with 50 μl of formic acid followed by two consecutive 500 μl hexane extractions. The organic extracts from the two extractions were combined and the solvent was evaporated under nitrogen gas. […] The PUFA peak areas were quantified by using the Analyst software (SCIEX, Framingham, MA).

[2] = tested on: liver, EPI WAT and ING WAT; experiment: RNA-Seq analysis of liver, EPI WAT and ING WAT; conditions: 30 mg/kg, 54 days
Description: RNA was extracted by using the Qiagen RNeasy 96 Universal kit (QIAGEN, Germantown, MD). The concentration and quality of the isolated RNA samples were assessed and determined on an Agilent 4200 TapeStation system and had RNA integrity numbers more than 9.1. Adipose or liver RNA (250 ng) was used to prepare a cDNA library by using a protocol modified from the Illumina TruSeq Stranded mRNA kit (Illumina, San Diego CA). Briefly, after polyA^+ RNA selection, fragmentation, and priming, the fragmented RNA was transcribed to cDNA in the reaction of reverse transcription containing SuperScript™ II (Thermo Fisher Scientific—Invitrogen™, Waltham, MA) and RNase-out (Thermo Fisher Scientific—Invitrogen™, Waltham, MA) and, sequentially, the products of the first strand cDNA synthesis reaction were converted to double-stranded cDNAs and subjected to end repair, A-tailing, and adapter ligation by following the commercial instruction. The constructed libraries were amplified and barcoded using the PCR program: a denaturation step at 98° C. for 30 seconds, 15 cycles of 95° C. for 10 seconds, 60° C. for 30 seconds, and 72° C. for 30 seconds, and a 72° C. extension cycle for 5 minutes followed by a hold step at 4° C. Libraries were sequenced to a minimum depth of 30 million paired end reads on an Illumina HiSeq4000 with the 100 nt or 150 nt read length.
RNA-Seq sequencing reads of the mouse samples were aligned and processed using OSA aligner, which is implemented in the OmicSoft Array Suite (QIAGEN OmicSoft, Cary, NC), based on mouse genome version GRCm38 and gene model GENCODE v19. Read count quantification was performed to the gene level based on OmicSoft implementation of RSEM. Downstream analysis using the read count output was performed following the standard RNA-seq workflow of DESeq2 R/Bioconductor package. Briefly, raw read count was transformed and nonnalized using the Variance Stabilizing Transformation (VST) method. Principal component analysis (PCA) was carried out by the plotPCA function using top 1000 variable genes. Differential expression analysis based on the negative binomial distribution was performed using the DESeq function.
Gene expression was represented as normalized fragments per kilobase per million reads (FPKM). FPKM values were further normalized with a refinement of the commonly employed upper-quartile method that sets the FPKM to a value of 10 at the 70th percentile. Lowly expressed genes with fewer than five samples at FPKM≥1 were removed. Genes with Benjamini-Hochberg (BH)-adjusted P value <0.01 and fold change ≥2 or ≤0.5 were selected as DEGs. Volcano plots of differential expression analysis results were made using EnhancedVolcano R package (github.com/kevinblighe/EnhancedVolcano).
The selected DEGs were annotated by IPA (QIAGEN, Redwood City, CA) on canonical pathways and toxicity lists. Gene expression enrichment in Gene Ontology (GO), KEGG was analyzed by using Cluster Profiler R package with default parameters. Deconvolution analysis was performed using MuSiC software v0.2.0 to estimate relative cell type abundance in each mouse bulk tissue samples. The Tabula Muris single-cell RNA-seq data set was used as a reference for MuSiC algorithm. The analysis was done separately for each tissue types including EPI and ING WAT, and liver.

[3] = Liver triglyceride measurement; conditions: DIO mice, 8 weeks of 10 or 30 mg/kg
Description: Liver total lipids were homogenized and extracted using chloroform methanol solution at a ratio of 2:1. Extracted lipids were dried under nitrogen gas and suspended in 90% isopropanol, 10% Triton X-100 solution. Liver triglyceride levels in mg/g tissue were determined using total triglyceride measurement kits from Wako Diagnostics (Richmond, VA) and Sigma-Aldrich (Burlington, MA).

COc1ccn2c(=O)c(-c3cnn(CC(F)(F)C(F)(F)F)c3)c(C(F)(F)F)nc2c1 [Compound A, 8-methoxy-3-(1-(2,2,3,3,3-pentafluoropropyl)-1H-pyrazol-4-yl)-2-(trifluoromethyl)-4H-pyrido[1,2-a]pyrimidin-4-one]
FADS1 activity 20:4n-6/20:3n-6 ([1]; 10 mg kg^−1, 46 or 54 days): 0.06 ± 0.01 | FADS2 activity 18:3n-6/18:2n-6 ([1]; 10 mg kg^−1, 46 or 54 days): 0.018 ± 0.002 | FADS1 activity 20:4n-6/20:3n-6 ([1]; 30 mg kg^−1, 46 or 54 days): 0.05 ± 0.01 | FADS2 activity 18:3n-6/18:2n-6 ([1]; 30 mg kg^−1, 46 or 54 days): 0.014 ± 0.003 | Adrenic acid 22:4 n-6 ([1]; 10 mg kg^−1, 46 or 54 days): 1.0 ± 0.1 µg/mL | Alpha-Linolenic acid 18:3 n-3 ([1]; 10 mg kg^−1, 46 or 54 days): 0.9 ± 0.3 µg/mL | Arachidonic acid 20:4 n-6 ([1]; 10 mg kg^−1, 46 or 54 days): 16.1 ± 3.2 µg/mL | Dihomo-gamma-Linolenic acid 20:3 n-6 ([1]; 10 mg kg^−1, 46 or 54 days): 281.3 ± 34.6 µg/mL | Docosahexaenoic acid 22:6 n-3 ([1]; 10 mg kg^−1, 46 or 54 days): 93.5 ± 11.8 µg/mL | Eicosapentaenoic acid 20:5 n-3 ([1]; 10 mg kg^−1, 46 or 54 days): 0.3 ± 0.1 µg/mL | Eicosatetraenoic acid 20:4 n-3 ([1]; 10 mg kg^−1, 46 or 54 days): 2.5 ± 0.5 µg/mL | Gamma-Linoleic acid 18:3 n-6 ([1]; 10 mg kg^−1, 46 or 54 days): 3.4 ± 0.4 µg/mL | Linoleic acid 18:2 n-6 ([1]; 10 mg kg^−1, 46 or 54 days): 198.5 ± 10.5 µg/mL | Adrenic acid 22:4 n-6 ([1]; 30 mg kg^−1, 46 or 54 days): 0.8 ± 0.1 µg/mL | Alpha-Linolenic acid 18:3 n-3 ([1]; 30 mg kg^−1, 46 or 54 days): 0.7 ± 0.2 µg/mL | Arachidonic acid 20:4 n-6 ([1]; 30 mg kg^−1, 46 or 54 days): 12.5 ± 3.0 µg/mL | Dihomo-gamma-Linolenic acid 20:3 n-6 ([1]; 30 mg kg^−1, 46 or 54 days): 242.3 ± 23.4 µg/mL | Docosahexaenoic acid 22:6 n-3 ([1]; 30 mg kg^−1, 46 or 54 days): 78.2 ± 11.6 µg/mL | Eicosapentaenoic acid 20:5 n-3 ([1]; 30 mg kg^−1, 46 or 54 days): 0.3 ± 0.1 µg/mL | Eicosatetraenoic acid 20:4 n-3 ([1]; 30 mg kg^−1, 46 or 54 days): 1.9 ± 0.4 µg/mL | Gamma-Linoleic acid 18:3 n-6 ([1]; 30 mg kg^−1, 46 or 54 days): 2.8 ± 0.5 µg/mL | Linoleic acid 18:2 n-6 ([1]; 30 mg kg^−1, 46 or 54 days): 196.5 ± 24.6 µg/mL | Adrenic acid AdA 22:4 n-6 ([1]; 10 mg/kg): 1.0 ± 0.1 µg/mL | Arachidonic acid AA 20:4 n-6 ([1]; 10 mg/kg): 16.1 ± 3.2 µg/mL | Decosahexaenoic acid DHA 22:6 n-3 ([1]; 10 mg/kg): 93.5 ± 11.8 µg/mL | Dihomo-γ-Linolenic acid DGLA 20:3 n-6 ([1]; 10 mg/kg): 281.3 ± 34.6 µg/mL | Eicosapentaenoic acid EPA 20:5 n-3 ([1]; 10 mg/kg): 0.3 ± 0.1 µg/mL | Eicosatetraenoic acid ETA 20:4 n-3 ([1]; 10 mg/kg): 2.5 ± 0.5 µg/mL | Linoleic acid LA 18:2 n-6 ([1]; 10 mg/kg): 198.5 ± 10.5 µg/mL | α-Linolenic acid ALA 18:3 n-3 ([1]; 10 mg/kg): 0.9 ± 0.3 µg/mL | γ-Linoleic acid GLA 18:3 n-6 ([1]; 10 mg/kg): 3.4 ± 0.4 µg/mL | Adrenic acid AdA 22:4 n-6 ([1]; 30 mg/kg): 0.8 ± 0.1 µg/mL | Arachidonic acid AA 20:4 n-6 ([1]; 30 mg/kg): 12.5 ± 3.0 µg/mL | Decosahexaenoic acid DHA 22:6 n-3 ([1]; 30 mg/kg): 78.2 ± 11.6 µg/mL | Dihomo-γ-Linolenic acid DGLA 20:3 n-6 ([1]; 30 mg/kg): 242.3 ± 23.4 µg/mL | Eicosapentaenoic acid EPA 20:5 n-3 ([1]; 30 mg/kg): 0.3 ± 0.1 µg/mL | Eicosatetraenoic acid ETA 20:4 n-3 ([1]; 30 mg/kg): 1.9 ± 0.4 µg/mL | Linoleic acid LA 18:2 n-6 ([1]; 30 mg/kg): 196.5 ± 24.6 µg/mL | α-Linolenic acid ALA 18:3 n-3 ([1]; 30 mg/kg): 0.7 ± 0.2 µg/mL | γ-Linoleic acid GLA 18:3 n-6 ([1]; 30 mg/kg): 2.8 ± 0.5 µg/mL | FADS1 activity AA/DGLA 20:4n-6/20:3n-6 ([1]; 10 mg/kg): 0.06 ± 0.01 | FADS2 activity GLA/LA 18:3n-6/18:2n-6 ([1]; 10 mg/kg): 0.018 ± 0.002 | FADS1 activity AA/DGLA 20:4n-6/20:3n-6 ([1]; 30 mg/kg): 0.05 ± 0.01 | FADS2 activity GLA/LA 18:3n-6/18:2n-6 ([1]; 30 mg/kg): 0.014 ± 0.003 | decrease of AA/DHA ratio ([1]; plasma, Compound A-treated mice (Table 6.1)): five-fold | downregulated pathways (IPA) in the liver ([2]; Compound A-treated WT DIO mice): downregulation of Acute Phase Response. AMPK Signaling, and Senescence pathways | upregulated pathways (IPA) in the liver ([2]; Compound A-treated WT DIO mice): upregulation of Calcium Signaling, PPARα/RXRα Activation, and Xenobiotic metabolism AHR Signaling pathways | Insulin Receptor Signaling pathway (IPA) in EPI WAT ([2]; DIO mice): increased | fatty acid oxidation-related genes (Cpt1a, Acox1, Acaa1a, Fgf21) in the liver ([2]; DIO mice): increased | inflammation-related genes (Cc12, Cd14, Cd68) in ING WAT ([2]; DIO mice): decreased | lipolysis (Lipe, Mg11, Pnpla2) and insulin-signaling genes (Insr, Irs1, Slc2a4) in EPI WAT ([2]; DIO mice): increased | cellular composition of EPI WAT (immune cell population) ([2]; DIO mice, relative to WT vehicle): decreases in T cells, B cells, and natural killer cells | hepatic triglyceride content [3]: No apparent increase

From patent publication US20260183297A1, “SELECTION OF PATIENTS FOR THE TREATMENT OF FADS1-MEDIATED DISEASES OR DISORDERS USING FADS-1 INHIBITORS” (AMGEN INC., priority 2022, published 2026)
